The values below come from patent US20210353593A1 (Chinook Therapeutics, Inc., priority 2019, published 2021).

This assay deals with IL-6 production in primary human mesangial cells. Kind of assay: ET-1 induced IL-6 production (ELISA) in primary human renal mesangial cells. The format is cell-based. On the technique in general: In an ELISA, binding on a coated surface is turned into a signal by an enzyme label.

Positions of bridges follow the written chain, without caps; N, C: chain ends. No end group written: not given here.

Take “ET-1: endothelin 1, used to stimulate primary human mesangial cells (CSCSSLMDKECVYFCHLDIIW; disulfide 1-15, 3-11; ends not checked; UniProt P05305 53-73, looked up)”: the “increase in IL-6 production by primary human mesangial cells” value is reported as roughly 6 fold (exposed to ET-1 over 48 hours) and roughly 2.2 fold (exposed to ET-1 over 72 hours).
